Consider four compounds from publication PMC2920814 (PLoS ONE, 2010).

For orientation: Kp means the ratio of the level in a tissue or fluid to that in plasma or blood. In general, IC50 refers to the midpoint of a concentration-inhibition curve.

The target in series [1] is Erk2 (Mus musculus, UniProt P63085). Briefly: Affinity chromatography on immobilized drugs, Western blotting. The series is classed as binding. Particulars: adult mouse brain extract 500 µg, sepharose beads. (In general: A western blot detects proteins with antibodies after separation by electrophoresis.)
In series [2] the target is T1, pyridoxal kinase (PDXK) (Mus musculus, UniProt Q8K183).
T1 sequence (Q8K183 1-312): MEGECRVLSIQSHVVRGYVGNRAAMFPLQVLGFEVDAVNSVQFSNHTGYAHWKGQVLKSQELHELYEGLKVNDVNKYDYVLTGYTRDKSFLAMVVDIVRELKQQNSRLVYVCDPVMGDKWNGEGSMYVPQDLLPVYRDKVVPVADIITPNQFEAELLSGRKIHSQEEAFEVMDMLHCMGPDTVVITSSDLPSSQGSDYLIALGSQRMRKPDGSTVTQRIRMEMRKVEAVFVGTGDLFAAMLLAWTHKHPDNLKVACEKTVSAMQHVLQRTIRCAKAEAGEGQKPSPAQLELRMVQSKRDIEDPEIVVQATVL
The description is as above. Format: binding. Particulars: adult mouse brain extract 500 µg, sepharose beads.

For series [3], the system named is permanent focal cerebral ischemia (pMCAo) in adult mice. Kind of series: Permanent middle cerebral artery occlusion (pMCAo), infarct volumes by TTC staining. The series is classed as in vivo, mouse (C57 b/6). Particulars: 3 hrs after occlusion.
A short description of series [4]: Blood brain barrier permeability, brain and plasma level after IV injection (LC/MS/MS). Particulars: SD, rat, brain, sampling time 15 min, healthy adult rats, n = 2. Format: in vivo. The method, then:
Dosed animals were sacrificed at 15 min after the end of the intravenous injection. Blood were collected through the retro-orbital sinus using a capillary tube. Animals were then perfused with saline solution into the heart to […] the brain. Brain was collected, and homogenized. Both plasma and brain samples were analyzed using LC/MS/MS determination, according to ADME-Bioanalysis (Vergeze, France) procedures.

The subject of series [5] is E18 mixed hippocampal cell cultures. Kind of series: Kainate (KA)-induced neuronal excitotoxicity, PI staining. Format: cell-based, rat (Wistar). Particulars: KA 200 µM for 5 hrs; for neuroprotective effect on KA-induced neuronal death (relative neuronal death): 10 div cultures, compound added with KA, 0.05 to 50 µM.
For series [6], the system named is CDK1/CyclB. Set-up: method as in PMID 15975926, PMID 15985434. As to conditions: previously described; ref [30], [31]; cited from earlier work.
Series [7] concerns CDK2/CyclE. Also noted: method as in PMID 15975926, PMID 15985434. Particulars: previously described; ref [30], [31]; cited from earlier work.
Series [8] deals with CDK5/p25. Also noted: method as in PMID 15975926, PMID 15985434. As to conditions: previously described; ref [30], [31]; cited from earlier work.
Series [9] deals with ERK2. Set-up: method as in PMID 15975926, PMID 15985434. As to conditions: previously described; ref [30], [31]; cited from earlier work.
Series [10] deals with CK1. Set-up: method as in PMID 15975926, PMID 15985434. Particulars: previously described; ref [30], [31]; cited from earlier work.
Where [11] appears, read: ICV infusion 500 µM starting 48 hrs before pMCAo.
Setting [12] is: IP 25 mg/kg 15 min pre- and 1 hr post-MCAo, 25 mg/kg.

Molecules are shown by their SMILES. Several values for one entry are separate records, joined by “and”; a condition that tells them apart may be missing. Identical values can stand only once. Entries after “also recorded” stand apart in the source; their conditions may differ.

Sequence of Erk2 (P63085 whole entry): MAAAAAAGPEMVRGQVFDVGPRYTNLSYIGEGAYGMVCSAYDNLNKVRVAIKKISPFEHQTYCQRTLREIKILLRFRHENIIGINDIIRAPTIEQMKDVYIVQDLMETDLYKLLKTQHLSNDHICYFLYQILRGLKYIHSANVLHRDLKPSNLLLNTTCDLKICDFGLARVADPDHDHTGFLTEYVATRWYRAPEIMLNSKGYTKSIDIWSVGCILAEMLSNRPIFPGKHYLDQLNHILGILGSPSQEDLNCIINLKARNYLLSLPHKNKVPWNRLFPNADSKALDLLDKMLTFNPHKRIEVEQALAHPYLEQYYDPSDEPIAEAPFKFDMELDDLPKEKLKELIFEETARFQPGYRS

With `CC[C@H](CO)Nc1nc(NCc2ccccc2)c2ncn(C(C)C)c2n1` [(R)-roscovitine], the “binding of Erk2 to immobilized compound” value in series [1] is given as “bind”. Moreover, in series [2], the “binding of PDXK to immobilized compound” value is listed as “bind”.
For `CC[C@@H](CO)Nc1nc(NCc2ccccc2)c2ncn(C(C)C)c2n1` [(S)-roscovitine], in series [3] (setting [11]), the “decrease of the total infarct volume compared to vehicle” value was 28% and 27.7%; the “ischemic core volume compared to vehicle” value is “comparable”; the “reduction of the ischemic (hypometabolic) zone volume compared to vehicle” value is 36% and 35.8%. Also, the “ischemic core volume compared to vehicle” value in series [3] (IP 25 mg/kg 15 min pre- and 1 hr post-MCAo) was “comparable”. For the same compound, in series [3] (setting [12]), the “decrease of the ischemic (hypometabolic) zone volume compared to vehicle” value was 39% and 38.9%; the “decrease of the total infarct volume compared to vehicle” value is 31% and 30.7%. For the same compound, the Kp at 0.25 h in [4] (20 mg/kg, i.v. 20 mg/kg) stood at 0.15. In series [4] (30 mg/kg, i.v. 30 mg/kg), the Kp at 0.25 h came out at 0.17. The “neuroprotective effect compared to the (R) stereoisomer” value in series [5] (0.5 µM) is on record as “significantly stronger neuroprotective effect; also recorded: significantly increased neuroprotective activity”. Also, the “binding of Erk2 to immobilized compound” value in series [1] is “preferentially bound and bind”. Besides, the “binding of PDXK to immobilized compound” value in series [2] is on record as “did not bind”.
As for `CC[C@H](CO)Nc1nc(N(C)Cc2ccccc2)c2ncn(C(C)C)c2n1` [N^6-methyl (R)-roscovitine], the “neuroprotective effect on KA-induced neuronal death (relative neuronal death)” value in series [5] is “no significant neuroprotective effect”; in series [5] (listed as N^6-methyl-(R)-roscovitine), “did not exhibited any neuroprotective effect”. In series [2], the “binding of PDXK to immobilized compound” value is “bind”. The IC50 is 45 µM in [6]; 250 µM in series [7]; 45 µM in [8]; over 1000 µM in [9]; over 1 mM in series [10].
As for `CC[C@H](CO)Nc1nc(OCc2ccccc2)c2ncn(C(C)C)c2n1` [O^6-(R)-roscovitine], in series [5], the “neuroprotective effect on KA-induced neuronal death (relative neuronal death)” value is listed as “no significant neuroprotective effect; also recorded: did not exhibited any neuroprotective effect”. For the same compound, the IC50 in series [6] was 100 µM; in series [7] it was 250 µM; in series [8], 200 µM; in [9] it was 700 µM; in series [10], over 1 mM.
